Laboratory results as given in publication PMC6886798, “Expression of myeloid Src-family kinases is associated with poor prognosis in AML and influences Flt3-ITD kinase inhibitor acquired resistance” (PLoS ONE, 2019).

Tests used:
Test in all cases: KINOMEscan
Assay type in all cases: binding
Settings in all cases: 1.0 µM
[1] = biological target: T1, ABL1(F317I)-nonphosphorylated (Homo sapiens, UniProt P00519, F317I)
T1 construct: purchased Eurofins/DiscoverX KINOMEscan scanMAX
Description: (§1) Kinase retention to the immobilized ligand is then measured using quantitative real-time PCR for each kinase-specific DNA barcode.

[2] = biological target: T2, ABL1(T315I)-nonphosphorylated (Homo sapiens, UniProt P00519, T315I)
T2 construct: purchased Eurofins/DiscoverX KINOMEscan scanMAX
Description: as §1

ACVR1 = biological target: T3, ACVR1 (Homo sapiens, UniProt Q04771)
T3 construct: purchased Eurofins/DiscoverX KINOMEscan scanMAX
Description: as §1

AURKC = biological target: T4, AURKC (Homo sapiens, UniProt Q9UQB9)
T4 construct: purchased Eurofins/DiscoverX KINOMEscan scanMAX
T4 sequence (Q9UQB9 whole entry): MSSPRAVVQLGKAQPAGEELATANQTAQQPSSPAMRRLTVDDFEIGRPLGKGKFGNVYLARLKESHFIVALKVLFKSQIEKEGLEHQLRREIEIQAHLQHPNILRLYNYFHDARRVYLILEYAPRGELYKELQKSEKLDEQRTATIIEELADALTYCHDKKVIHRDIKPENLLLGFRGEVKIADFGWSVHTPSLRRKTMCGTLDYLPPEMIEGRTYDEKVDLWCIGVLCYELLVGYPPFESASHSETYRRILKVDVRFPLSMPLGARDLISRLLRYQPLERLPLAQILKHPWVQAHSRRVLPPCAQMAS
Description: as §1

CLK3 = biological target: T5, CLK3 (Homo sapiens, UniProt P49761)
T5 construct: purchased Eurofins/DiscoverX KINOMEscan scanMAX
T5 sequence (P49761 whole entry): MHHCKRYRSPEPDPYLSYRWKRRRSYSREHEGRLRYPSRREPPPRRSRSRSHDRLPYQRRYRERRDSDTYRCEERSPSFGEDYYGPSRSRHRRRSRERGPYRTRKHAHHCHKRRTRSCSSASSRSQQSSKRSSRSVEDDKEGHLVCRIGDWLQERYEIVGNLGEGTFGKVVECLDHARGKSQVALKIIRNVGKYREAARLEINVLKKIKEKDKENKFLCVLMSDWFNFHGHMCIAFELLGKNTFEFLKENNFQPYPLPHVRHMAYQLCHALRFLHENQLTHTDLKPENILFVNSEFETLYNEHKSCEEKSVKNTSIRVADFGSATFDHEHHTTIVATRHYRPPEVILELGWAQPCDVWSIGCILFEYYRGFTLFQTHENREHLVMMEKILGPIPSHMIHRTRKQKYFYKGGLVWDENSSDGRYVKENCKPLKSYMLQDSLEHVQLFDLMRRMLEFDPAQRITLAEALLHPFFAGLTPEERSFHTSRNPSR
Description: as §1

CSNK1D = biological target: T6, CSNK1D (Homo sapiens, UniProt P48730)
T6 construct: purchased Eurofins/DiscoverX KINOMEscan scanMAX
T6 sequence (P48730 whole entry): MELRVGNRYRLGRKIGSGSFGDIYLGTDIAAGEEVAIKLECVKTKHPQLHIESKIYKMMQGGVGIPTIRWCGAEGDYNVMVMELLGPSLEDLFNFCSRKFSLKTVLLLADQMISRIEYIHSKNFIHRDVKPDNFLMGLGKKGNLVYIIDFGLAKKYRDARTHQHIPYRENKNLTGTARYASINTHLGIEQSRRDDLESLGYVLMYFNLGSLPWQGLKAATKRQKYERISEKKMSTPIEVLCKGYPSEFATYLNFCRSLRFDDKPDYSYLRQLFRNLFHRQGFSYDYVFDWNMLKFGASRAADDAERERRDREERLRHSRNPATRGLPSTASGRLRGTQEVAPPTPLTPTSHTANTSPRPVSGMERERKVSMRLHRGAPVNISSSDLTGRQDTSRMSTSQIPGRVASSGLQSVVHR
Description: as §1

DCAMKL2 = biological target: T7, DCAMKL2 (Homo sapiens, UniProt Q8N568)
T7 construct: purchased Eurofins/DiscoverX KINOMEscan scanMAX
Description: as §1

EPHA4 = biological target: T8, EPHA4 (Homo sapiens, UniProt P54764)
T8 construct: purchased Eurofins/DiscoverX KINOMEscan scanMAX
Description: as §1

FGFR2 = biological target: T9, FGFR2 (Homo sapiens, UniProt P21802)
T9 construct: purchased Eurofins/DiscoverX KINOMEscan scanMAX
T9 sequence (P21802 22-821): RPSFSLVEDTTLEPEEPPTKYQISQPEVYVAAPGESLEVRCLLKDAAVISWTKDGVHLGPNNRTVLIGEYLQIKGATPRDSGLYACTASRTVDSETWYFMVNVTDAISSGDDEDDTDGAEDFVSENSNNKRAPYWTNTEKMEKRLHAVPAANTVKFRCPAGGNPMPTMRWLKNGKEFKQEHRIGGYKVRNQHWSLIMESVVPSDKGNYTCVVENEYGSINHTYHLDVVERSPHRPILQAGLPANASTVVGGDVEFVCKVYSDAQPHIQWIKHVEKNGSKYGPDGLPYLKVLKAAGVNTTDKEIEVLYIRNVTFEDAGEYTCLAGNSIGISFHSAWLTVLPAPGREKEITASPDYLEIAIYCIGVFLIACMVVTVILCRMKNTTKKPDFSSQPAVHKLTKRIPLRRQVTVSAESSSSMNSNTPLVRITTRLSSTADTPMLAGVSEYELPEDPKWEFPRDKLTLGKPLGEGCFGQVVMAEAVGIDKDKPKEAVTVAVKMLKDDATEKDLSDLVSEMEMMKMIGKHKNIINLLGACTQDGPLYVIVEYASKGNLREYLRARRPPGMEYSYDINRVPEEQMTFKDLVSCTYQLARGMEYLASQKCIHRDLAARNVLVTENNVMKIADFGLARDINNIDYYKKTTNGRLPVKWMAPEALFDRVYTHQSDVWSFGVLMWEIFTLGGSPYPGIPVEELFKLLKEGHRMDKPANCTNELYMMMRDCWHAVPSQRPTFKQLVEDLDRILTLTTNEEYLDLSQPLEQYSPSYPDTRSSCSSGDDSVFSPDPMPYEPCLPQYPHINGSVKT
Description: as §1

FGFR3 = biological target: T10, FGFR3 (Homo sapiens, UniProt P22607)
T10 construct: purchased Eurofins/DiscoverX KINOMEscan scanMAX
Description: as §1

GSK3A = biological target: T11, GSK3A (Homo sapiens, UniProt P49840)
T11 construct: purchased Eurofins/DiscoverX KINOMEscan scanMAX
Description: as §1

HASPIN = biological target: T12, HASPIN (Homo sapiens, UniProt Q8TF76)
T12 construct: purchased Eurofins/DiscoverX KINOMEscan scanMAX
Description: as §1

JNK1 = biological target: T13, JNK1 (Homo sapiens, UniProt P45983)
T13 construct: purchased Eurofins/DiscoverX KINOMEscan scanMAX
Description: as §1

JNK2 = biological target: T14, JNK2 (Homo sapiens, UniProt P45984)
T14 construct: purchased Eurofins/DiscoverX KINOMEscan scanMAX
Description: as §1

KIT(L576P) = biological target: T15, KIT(L576P) (Homo sapiens, UniProt P10721, L576P)
T15 construct: purchased Eurofins/DiscoverX KINOMEscan scanMAX
Description: as §1

LIMK1 = biological target: T16, LIMK1 (Homo sapiens, UniProt P53667)
T16 construct: purchased Eurofins/DiscoverX KINOMEscan scanMAX
Description: as §1

LIMK2 = biological target: T17, LIMK2 (Homo sapiens, UniProt P53671)
T17 construct: purchased Eurofins/DiscoverX KINOMEscan scanMAX
Description: as §1

LTK = biological target: T18, LTK (Homo sapiens, UniProt P29376)
T18 construct: purchased Eurofins/DiscoverX KINOMEscan scanMAX
Description: as §1

MLK2 = biological target: T19, MLK2 (Homo sapiens, UniProt Q02779)
T19 construct: purchased Eurofins/DiscoverX KINOMEscan scanMAX
Description: as §1

MST1R = biological target: T20, MST1R (Homo sapiens, UniProt Q04912)
T20 construct: purchased Eurofins/DiscoverX KINOMEscan scanMAX
Description: as §1

MST2 = biological target: T21, MST2 (Homo sapiens, UniProt Q13188)
T21 construct: purchased Eurofins/DiscoverX KINOMEscan scanMAX
Description: as §1

NDR1 = biological target: T22, NDR1 (Homo sapiens, UniProt Q15208)
T22 construct: purchased Eurofins/DiscoverX KINOMEscan scanMAX
T22 sequence (Q15208 whole entry): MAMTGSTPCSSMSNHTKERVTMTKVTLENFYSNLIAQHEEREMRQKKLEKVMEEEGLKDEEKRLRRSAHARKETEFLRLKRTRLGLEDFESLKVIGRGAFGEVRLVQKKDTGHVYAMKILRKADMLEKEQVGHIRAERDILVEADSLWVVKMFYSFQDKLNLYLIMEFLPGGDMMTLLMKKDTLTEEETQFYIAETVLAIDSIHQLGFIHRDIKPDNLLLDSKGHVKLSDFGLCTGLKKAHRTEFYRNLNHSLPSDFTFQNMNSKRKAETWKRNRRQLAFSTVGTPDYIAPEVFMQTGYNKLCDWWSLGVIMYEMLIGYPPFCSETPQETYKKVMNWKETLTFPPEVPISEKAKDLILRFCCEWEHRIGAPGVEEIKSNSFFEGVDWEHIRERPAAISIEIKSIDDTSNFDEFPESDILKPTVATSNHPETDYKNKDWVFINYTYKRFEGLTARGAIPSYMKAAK
Description: as §1

NEK11 = biological target: T23, NEK11 (Homo sapiens, UniProt Q8NG66)
T23 construct: purchased Eurofins/DiscoverX KINOMEscan scanMAX
Description: as §1

NEK3 = biological target: T24, NEK3 (Homo sapiens, UniProt P51956)
T24 construct: purchased Eurofins/DiscoverX KINOMEscan scanMAX
T24 sequence (P51956 whole entry): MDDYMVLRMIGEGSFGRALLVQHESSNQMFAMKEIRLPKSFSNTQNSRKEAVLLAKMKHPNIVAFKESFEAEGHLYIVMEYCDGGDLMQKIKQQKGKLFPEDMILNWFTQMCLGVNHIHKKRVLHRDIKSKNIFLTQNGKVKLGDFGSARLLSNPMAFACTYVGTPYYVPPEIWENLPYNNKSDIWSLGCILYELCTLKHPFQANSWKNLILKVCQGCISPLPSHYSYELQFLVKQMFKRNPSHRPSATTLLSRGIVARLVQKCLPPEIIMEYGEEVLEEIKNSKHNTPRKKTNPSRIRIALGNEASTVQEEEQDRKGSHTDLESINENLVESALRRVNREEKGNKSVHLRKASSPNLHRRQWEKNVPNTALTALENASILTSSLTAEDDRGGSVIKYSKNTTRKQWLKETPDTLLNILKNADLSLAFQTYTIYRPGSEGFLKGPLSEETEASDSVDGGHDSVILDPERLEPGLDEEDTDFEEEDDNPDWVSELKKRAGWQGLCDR
Description: as §1

PAK1 = biological target: T25, PAK1 (Homo sapiens, UniProt Q13153)
T25 construct: purchased Eurofins/DiscoverX KINOMEscan scanMAX
Description: as §1

PHKG1 = biological target: T26, PHKG1 (Homo sapiens, UniProt Q16816)
T26 construct: purchased Eurofins/DiscoverX KINOMEscan scanMAX
Description: as §1

PIM1 = biological target: T27, PIM1 (Homo sapiens, UniProt P11309)
T27 construct: purchased Eurofins/DiscoverX KINOMEscan scanMAX
Description: as §1

PKAC-alpha = biological target: T28, PKAC-alpha (Homo sapiens, UniProt P17612)
T28 construct: purchased Eurofins/DiscoverX KINOMEscan scanMAX
Description: as §1

PKMYT1 = biological target: T29, PKMYT1 (Homo sapiens, UniProt Q99640)
T29 construct: purchased Eurofins/DiscoverX KINOMEscan scanMAX
T29 sequence (Q99640 whole entry): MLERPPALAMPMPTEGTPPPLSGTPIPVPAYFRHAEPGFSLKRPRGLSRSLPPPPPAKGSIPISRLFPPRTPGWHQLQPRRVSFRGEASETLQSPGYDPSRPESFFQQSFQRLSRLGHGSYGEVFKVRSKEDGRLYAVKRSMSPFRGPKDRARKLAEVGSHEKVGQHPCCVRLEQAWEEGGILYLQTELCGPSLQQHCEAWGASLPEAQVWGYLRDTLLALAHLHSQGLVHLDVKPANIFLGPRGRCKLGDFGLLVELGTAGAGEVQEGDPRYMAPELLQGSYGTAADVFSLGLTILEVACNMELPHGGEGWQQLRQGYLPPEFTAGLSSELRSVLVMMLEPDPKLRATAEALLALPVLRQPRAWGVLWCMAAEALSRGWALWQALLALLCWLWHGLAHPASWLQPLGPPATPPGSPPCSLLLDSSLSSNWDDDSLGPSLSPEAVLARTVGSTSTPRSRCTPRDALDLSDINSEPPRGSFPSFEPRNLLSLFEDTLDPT
Description: as §1

PLK1 = biological target: T30, PLK1 (Homo sapiens, UniProt P53350)
T30 construct: purchased Eurofins/DiscoverX KINOMEscan scanMAX
T30 sequence (P53350 whole entry): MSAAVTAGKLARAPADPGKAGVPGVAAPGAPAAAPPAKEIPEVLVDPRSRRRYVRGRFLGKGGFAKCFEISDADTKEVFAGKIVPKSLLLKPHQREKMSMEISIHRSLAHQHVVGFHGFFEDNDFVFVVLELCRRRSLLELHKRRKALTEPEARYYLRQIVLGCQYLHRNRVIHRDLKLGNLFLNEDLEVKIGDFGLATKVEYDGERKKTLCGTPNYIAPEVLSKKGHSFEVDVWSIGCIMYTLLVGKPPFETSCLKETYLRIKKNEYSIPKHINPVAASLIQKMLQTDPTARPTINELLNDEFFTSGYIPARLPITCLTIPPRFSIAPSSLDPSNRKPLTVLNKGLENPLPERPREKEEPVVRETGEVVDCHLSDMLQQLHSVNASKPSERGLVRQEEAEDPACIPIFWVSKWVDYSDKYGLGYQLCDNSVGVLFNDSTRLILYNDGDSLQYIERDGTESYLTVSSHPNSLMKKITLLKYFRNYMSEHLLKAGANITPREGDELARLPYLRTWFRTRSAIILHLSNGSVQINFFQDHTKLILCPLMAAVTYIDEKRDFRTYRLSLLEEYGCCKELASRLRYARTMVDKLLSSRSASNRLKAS
Description: as §1

PRKCQ = biological target: T31, PRKCQ (Homo sapiens, UniProt Q04759)
T31 construct: purchased Eurofins/DiscoverX KINOMEscan scanMAX
Description: as §1

RET(V804L) = biological target: T32, RET(V804L) (Homo sapiens, UniProt P07949, V804L)
T32 construct: purchased Eurofins/DiscoverX KINOMEscan scanMAX
Description: as §1

RET(V804M) = biological target: T33, RET(V804M) (Homo sapiens, UniProt P07949, V804M)
T33 construct: purchased Eurofins/DiscoverX KINOMEscan scanMAX
Description: as §1

[3] = biological target: T34, RSK2(Kin.Dom.1-N-terminal) (Homo sapiens, UniProt P51812)
T34 construct: RSK2(Kin.Dom.1-N-terminal); purchased Eurofins/DiscoverX KINOMEscan scanMAX
Description: as §1

[4] = biological target: T35, RSK4(Kin.Dom.2-C-terminal) (Homo sapiens, UniProt Q9UK32)
T35 construct: RSK4(Kin.Dom.2-C-terminal); purchased Eurofins/DiscoverX KINOMEscan scanMAX
Description: as §1

SGK = biological target: T36, SGK (Homo sapiens, UniProt O00141)
T36 construct: purchased Eurofins/DiscoverX KINOMEscan scanMAX
Description: as §1

SGK2 = biological target: T37, SGK2 (Homo sapiens, UniProt Q9HBY8)
T37 construct: purchased Eurofins/DiscoverX KINOMEscan scanMAX
T37 sequence (Q9HBY8 whole entry): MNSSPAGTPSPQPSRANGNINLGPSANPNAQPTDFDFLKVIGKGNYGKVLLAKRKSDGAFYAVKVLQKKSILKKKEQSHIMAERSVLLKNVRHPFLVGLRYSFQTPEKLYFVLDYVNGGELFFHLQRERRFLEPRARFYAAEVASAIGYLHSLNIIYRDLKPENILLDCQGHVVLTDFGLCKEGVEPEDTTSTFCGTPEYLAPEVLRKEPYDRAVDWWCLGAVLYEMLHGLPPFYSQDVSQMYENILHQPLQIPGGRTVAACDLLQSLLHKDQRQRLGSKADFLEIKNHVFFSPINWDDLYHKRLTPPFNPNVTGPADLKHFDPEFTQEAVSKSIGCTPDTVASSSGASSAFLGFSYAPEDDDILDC
Description: as §1

SRC = biological target: T38, SRC (Homo sapiens, UniProt P12931)
T38 construct: purchased Eurofins/DiscoverX KINOMEscan scanMAX
T38 sequence (P12931 whole entry): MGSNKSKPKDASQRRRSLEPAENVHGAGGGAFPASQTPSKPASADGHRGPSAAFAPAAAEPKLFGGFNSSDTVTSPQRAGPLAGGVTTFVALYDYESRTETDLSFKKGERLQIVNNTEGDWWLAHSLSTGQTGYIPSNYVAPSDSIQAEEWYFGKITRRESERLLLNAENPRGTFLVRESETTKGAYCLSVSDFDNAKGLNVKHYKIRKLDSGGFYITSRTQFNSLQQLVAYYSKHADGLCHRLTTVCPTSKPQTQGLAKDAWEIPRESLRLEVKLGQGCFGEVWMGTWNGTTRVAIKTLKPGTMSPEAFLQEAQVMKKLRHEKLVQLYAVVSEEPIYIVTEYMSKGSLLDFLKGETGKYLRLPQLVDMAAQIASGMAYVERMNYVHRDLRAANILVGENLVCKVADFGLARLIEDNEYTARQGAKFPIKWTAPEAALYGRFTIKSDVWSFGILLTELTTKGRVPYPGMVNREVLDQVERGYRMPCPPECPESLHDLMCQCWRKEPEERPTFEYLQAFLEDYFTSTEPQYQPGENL
Description: as §1

TEC = biological target: T39, TEC (Homo sapiens, UniProt P42680)
T39 construct: purchased Eurofins/DiscoverX KINOMEscan scanMAX
Description: as §1

VRK2 = biological target: T40, VRK2 (Homo sapiens, UniProt Q86Y07)
T40 construct: DNA tag (qPCR barcode); purchased Eurofins/DiscoverX KINOMEscan scanMAX
Description: as §1

WEE1 = biological target: T41, WEE1 (Homo sapiens, UniProt P30291)
T41 construct: DNA tag (qPCR barcode); purchased Eurofins/DiscoverX KINOMEscan scanMAX
Description: as §1

CN1CCN(C2CCC(n3cc(-c4ccc(Oc5ccccc5)cc4)c4c(N)ncnc43)CC2)CC1 (centres unmarked) [A-419259]
% Control [1]: 2.5%
% Control [2]: 41%
% Control (ACVR1): 100%
% Control (AURKC): 79%
% Control (CLK3): 100%
% Control (CSNK1D): 8.3%
% Control (DCAMKL2): 87%
% Control (EPHA4): 100%
% Control (FGFR2): 39%
% Control (FGFR3): 30%
% Control (GSK3A): 100%
% Control (HASPIN): 70%
% Control (JNK1): 95%
% Control (JNK2): 94%
% Control (KIT(L576P)): 0%
% Control (LIMK1): 31%
% Control (LIMK2): 91%
% Control (LTK): 36%
% Control (MLK2): 29%
% Control (MST1R): 96%
% Control (MST2): 82%
% Control (NDR1): 68%
% Control (NEK11): 77%
% Control (NEK3): 92%
% Control (PAK1): 55%
% Control (PHKG1): 99%
% Control (PIM1): 100%
% Control (PKAC-alpha): 100%
% Control (PKMYT1): 100%
% Control (PLK1): 100%
% Control (PRKCQ): 66%
% Control (RET(V804L)): 24%
% Control (RET(V804M)): 21%
% Control [3]: 16%
% Control [4]: 94%
% Control (SGK): 75%
% Control (SGK2): 90%
% Control (SRC): 0.1%
% Control (TEC): 9%
% Control (VRK2): 39%
% Control (WEE1): 100%
